In patent EP4596536A1 (Shanghai de Novo Pharmatech Co., Ltd., priority 2022, dated 2024) one finds EC50 data, which are given here for five molecules.

The target in one assay is T1, TLR8 (Homo sapiens, UniProt Q9NR97).
T1 construct: host or cells: HEK293 (HEK-BLUE-hTLR8)
T1 sequence (Q9NR97 27-1041): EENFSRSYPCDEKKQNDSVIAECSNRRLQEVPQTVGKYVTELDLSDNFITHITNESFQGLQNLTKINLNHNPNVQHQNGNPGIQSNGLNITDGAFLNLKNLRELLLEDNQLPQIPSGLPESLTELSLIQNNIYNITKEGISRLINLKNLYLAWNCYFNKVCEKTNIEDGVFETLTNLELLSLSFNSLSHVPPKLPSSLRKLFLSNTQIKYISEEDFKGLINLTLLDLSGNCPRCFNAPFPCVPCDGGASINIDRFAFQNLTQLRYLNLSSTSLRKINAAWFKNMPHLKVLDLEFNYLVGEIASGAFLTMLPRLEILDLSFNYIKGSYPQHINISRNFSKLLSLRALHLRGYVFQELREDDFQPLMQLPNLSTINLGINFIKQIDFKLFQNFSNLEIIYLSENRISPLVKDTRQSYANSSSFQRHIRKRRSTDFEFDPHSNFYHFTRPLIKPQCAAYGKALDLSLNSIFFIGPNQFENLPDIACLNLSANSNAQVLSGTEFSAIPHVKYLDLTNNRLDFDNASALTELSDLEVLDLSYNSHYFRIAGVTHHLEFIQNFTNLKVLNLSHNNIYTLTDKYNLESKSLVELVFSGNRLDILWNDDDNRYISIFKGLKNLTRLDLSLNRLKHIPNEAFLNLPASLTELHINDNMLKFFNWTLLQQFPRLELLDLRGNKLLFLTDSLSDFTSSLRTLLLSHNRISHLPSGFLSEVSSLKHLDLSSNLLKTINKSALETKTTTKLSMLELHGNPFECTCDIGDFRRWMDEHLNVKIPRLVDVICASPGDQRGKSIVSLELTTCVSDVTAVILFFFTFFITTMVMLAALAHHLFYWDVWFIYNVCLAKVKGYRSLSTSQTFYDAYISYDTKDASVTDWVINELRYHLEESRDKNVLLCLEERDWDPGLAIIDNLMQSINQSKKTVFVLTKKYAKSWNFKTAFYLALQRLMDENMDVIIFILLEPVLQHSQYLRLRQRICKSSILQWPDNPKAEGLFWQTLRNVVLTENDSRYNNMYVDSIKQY
Nature of the assay: HEK-BLUE-hTLR8 cell SEAP reporter assay (Quanti-Blue). It is filed as cell-based. Particulars: HEK-BLUE-hTLR8 cells, 0.5 nM to 15 µM, 24 hours. On the procedure:
(§1) In this experiment, the biological activity of TLR7 and TLR8 in the compound of formula I was detected using cell tests. This method was conducted in human embryonic kidney cells (HEK293) expressing TLR family members such as TLR4, TLR7, TLR8 or TLR9. TLR agonists activate TLRs, triggering the activation of downstream NF-kB, which in turn activates the secreted embryonic alkaline phosphatase (SEAP) reporter gene. The activity of SEAP was detected using the Quanti-Blue (InvivoGen) reagent, thereby reflecting the activities of TLR7 and TLR8 agonists.
(§2) The detailed experimental method was as follows: HEK-BLUE-hTLR7 and HEK-BLUE-hTLR8 cell lines were purchased from Invivogen Company and cultured in DMEM medium containing 4.5 g/L glucose (Sigma-Aldrich) and 10% fetal bovine serum under the conditions of temperature 37°C, humidity 95% and 5% CO2.
(§3) The compound was tested at a concentration ranging from 0.5 nM to 15 µM over a total of 10 concentration gradients. TLR7 or TLR8 agonists with known activity were added as positive controls, and 1 µL of DMSO was added as a negative control.
(§4) The cells were treated as follows: the cells were removed from the culture dish and centrifuged to remove the medium, and resuspended in a T-150 bottle with 10 mL of preheated PBS, 12 mL of preheated medium was added, and the cells were gently pipetted up and down and counted under a microscope. A 200,000/mL single-cell suspension was immediately prepared with medium and added to a 96-well plate at 200 µL/well (40,000/well). The final concentration of DMSO was 0.5%.
(§5) The compound was added and incubated in an incubator at 37°C, 5% CO2 for 24 hours.
(§6) A supernatant at 20 µL/well was aspirated into 180 µL of preheated Quanti-Blue at 37°C, incubated at 37°C for 1.5 hours, and detected for the absorbance (OD value) with a spectrophotometer at 650 nm. The formula for calculating the agonistic effect is as follows:
(§7) Effect % = (average OD value of the drug-administered group - average OD value of the DMSO group) / (average OD value of the positive drug group - average OD value of the DMSO group) × 100
(§8) Graphpad software was used to fit the concentration-effect curve, and EC50 was calculated. The test results are shown in Table 15 (A denotes < 250 nM, B denotes 250 nM-1 µM, C denotes 1 µM-2 µM, D denotes > 2 µM, and - denotes not listed or not tested): Table 15
For orientation: A reporter such as luciferase makes a cellular process visible.

The target of the next assay is T2, TLR7 (Homo sapiens, UniProt Q9NYK1).
T2 construct: host or cells: HEK293 (HEK-BLUE-hTLR7)
T2 sequence (Q9NYK1 27-1049): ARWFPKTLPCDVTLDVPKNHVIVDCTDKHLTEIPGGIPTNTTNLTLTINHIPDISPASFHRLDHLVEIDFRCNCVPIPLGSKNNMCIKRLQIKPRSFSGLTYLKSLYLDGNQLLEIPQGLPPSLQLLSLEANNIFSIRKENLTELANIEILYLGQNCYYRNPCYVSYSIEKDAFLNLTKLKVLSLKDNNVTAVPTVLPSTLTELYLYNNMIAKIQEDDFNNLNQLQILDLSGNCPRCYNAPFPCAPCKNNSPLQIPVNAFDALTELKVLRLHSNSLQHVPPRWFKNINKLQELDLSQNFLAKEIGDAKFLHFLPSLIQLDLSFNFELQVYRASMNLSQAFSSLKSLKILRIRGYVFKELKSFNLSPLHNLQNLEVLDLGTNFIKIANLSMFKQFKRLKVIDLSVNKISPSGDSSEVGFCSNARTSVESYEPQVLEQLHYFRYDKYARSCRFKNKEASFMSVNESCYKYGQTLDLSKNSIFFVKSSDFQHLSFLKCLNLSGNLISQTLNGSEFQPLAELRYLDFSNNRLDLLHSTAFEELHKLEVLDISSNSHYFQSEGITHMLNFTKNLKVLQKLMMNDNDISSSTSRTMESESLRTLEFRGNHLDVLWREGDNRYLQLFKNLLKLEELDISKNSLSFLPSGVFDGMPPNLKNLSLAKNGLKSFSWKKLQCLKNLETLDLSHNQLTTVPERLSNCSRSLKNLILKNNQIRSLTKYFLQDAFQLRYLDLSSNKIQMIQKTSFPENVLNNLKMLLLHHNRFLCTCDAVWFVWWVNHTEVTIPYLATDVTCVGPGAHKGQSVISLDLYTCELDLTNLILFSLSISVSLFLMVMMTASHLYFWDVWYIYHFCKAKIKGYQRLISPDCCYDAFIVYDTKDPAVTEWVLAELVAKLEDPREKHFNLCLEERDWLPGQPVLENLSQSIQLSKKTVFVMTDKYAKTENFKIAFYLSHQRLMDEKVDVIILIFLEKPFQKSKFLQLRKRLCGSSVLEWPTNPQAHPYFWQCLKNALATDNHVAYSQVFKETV
Nature of the assay: HEK-BLUE-hTLR7 cell SEAP reporter assay (Quanti-Blue). Particulars: HEK-BLUE-hTLR7 cells, 0.5 nM to 15 µM, 24 hours. It is filed as cell-based. On the procedure: as §1, §2, §3, §4, §5, §6, §7, §8

Take `CCCN(CCO)C(=O)C1=Cc2ccc(C3(C(=O)Nc4cnc5c(c4)CNCC5)CC3)cc2N=C(N)C1` [Compound 2, 2-amino-N-(2-hydroxyethyl)-N-propyl-8-(1-((5,6,7,8-tetrahydro-1,6-naphthyridin-3-yl)carbamoyl)cyclopropyl)-3H-benzo[b]azepine-4-formamide]: the EC50 (in general, the concentration giving half of the maximal effect) on TLR8 is 0.25 to 1 µM; at TLR7 it was over 2 µM.

`CCCN(CCO)C(=O)C1=Cc2ccc(C3(C(=O)Nc4cncc(CN)c4)CC3)cc2N=C(N)C1` [Compound 7, 2-amino-8-(1-((5-(aminomethyl)pyridin-3-yl)carbamoyl)cyclopropyl)-N-(2-hydroxyethyl)-N-propyl-3H-benzo[b]azepine-4-formamide]: the figures for the EC50 at TLR8 and at TLR7 were under 0.25 µM and over 2 µM, respectively.

With `CCCN(CCO)C(=O)C1=Cc2c(F)cc(C3(C(=O)Nc4cnc5c(c4)CNCC5)CC3)cc2N=C(N)C1` [Compound 6, 2-amino-6-fluoro-N-(2-hydroxyethyl)-N-propyl-8-(1-((5,6,7,8-tetrahydro-1,6-naphthyridin-3-yl)carbamoyl)cyclopropyl)-3H-benzo[b]azepine-4-formamide], the results for the EC50 at TLR8 and at TLR7 were 0.25 to 1 µM and over 2 µM, respectively.

Consider `CCCN(CCC)C(=O)C1=Cc2c(F)cc(C3(C(=O)Nc4cnc5c(c4)CNCC5)CC3)cc2N=C(N)C1` [Compound 3, 2-amino-6-fluoro-N,N-dipropyl-8-(1-((5,6,7,8-tetrahydro-1,6-naphthyridin-3-yl)carbamoyl)cyclopropyl)-3H-benzo[b]azepine-4-formamide], for which the results for the half-maximal effective concentration (EC50) on TLR8 and at TLR7 were under 0.25 µM and over 2 µM, respectively.

Take `CCCN(CCC)C(=O)C1=Cc2ccc(C3(C(=O)Nc4cnc5c(c4)CNCC5)CC3)cc2N=C(N)C1` [Compound 1, 2-amino-N,N-dipropyl-8-(1-((5,6,7,8-tetrahydro-1,6-naphthyridin-3-yl)carbamoyl)cyclopropyl)-3H-benzo[b]azepine-4-formamide]: the concentration giving a half-maximal response (EC50) is under 0.25 µM on TLR8 and over 2 µM at TLR7.
